Assay results as given in patent publication US11649238B2, “Substituted pyrazolo[1,5-a]pyrimidines as PI4K inhibitors” (GLAXOSMITHKLINE INTELLECTUAL PROPERTY DEVELOPMENT LIMITED, priority 2018, dated 2023).
Several values for one entry are separate records, joined by “and”; a condition that tells them apart may be missing. Equal entries are not always repeated.

Columns and labels:
[1] = target: T1, human PI4KIII-beta 13-828 (D316-330) (Homo sapiens, UniProt Q9UBF8); assay: PI4 KB Activity Assay (ADP-GLO Kinase assay); format: biochemical; conditions: 1 mM ATP, 60 μM phosphatidylinositol, 3 hours at room temperature; read-out: mean pIC50 (converted)
T1 construct: human PI4KIII-beta 13-828 (D316-330)
T1 sequence (Q9UBF8 1-801 isoform Q9UBF8-2): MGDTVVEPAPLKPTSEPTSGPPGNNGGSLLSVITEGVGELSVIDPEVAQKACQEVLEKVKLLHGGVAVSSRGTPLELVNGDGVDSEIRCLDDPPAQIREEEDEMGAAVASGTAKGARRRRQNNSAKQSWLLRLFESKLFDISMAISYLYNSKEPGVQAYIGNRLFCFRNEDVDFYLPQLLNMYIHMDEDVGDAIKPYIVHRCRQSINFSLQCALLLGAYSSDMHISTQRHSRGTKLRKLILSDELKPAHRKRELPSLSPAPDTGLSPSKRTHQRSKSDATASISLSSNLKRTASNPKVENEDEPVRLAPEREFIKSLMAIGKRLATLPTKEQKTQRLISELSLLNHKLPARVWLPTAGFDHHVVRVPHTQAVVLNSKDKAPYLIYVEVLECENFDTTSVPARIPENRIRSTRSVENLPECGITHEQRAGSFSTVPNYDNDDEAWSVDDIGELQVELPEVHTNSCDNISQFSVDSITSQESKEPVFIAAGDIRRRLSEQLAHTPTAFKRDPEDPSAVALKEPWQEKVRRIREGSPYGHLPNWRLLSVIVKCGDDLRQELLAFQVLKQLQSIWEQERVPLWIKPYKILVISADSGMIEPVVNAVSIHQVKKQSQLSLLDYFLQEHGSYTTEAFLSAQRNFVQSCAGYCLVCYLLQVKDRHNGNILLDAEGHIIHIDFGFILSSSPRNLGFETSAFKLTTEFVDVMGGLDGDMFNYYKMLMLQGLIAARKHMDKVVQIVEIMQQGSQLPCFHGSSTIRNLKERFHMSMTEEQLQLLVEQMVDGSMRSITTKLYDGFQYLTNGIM
Procedure, shortened: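 Human PI4KIII-beta 13-828 (Δ316-330), 1.5 nM, with 1 mM ATP and 60 μM phosphatidylinositol in Hepes pH 7.5/MgCl2 buffer, 11-point titration (top 10 μM, 1% DMSO), 3 h at room temperature. ADP measured by ADP-Glo luminescence; IC50 by four-parameter fit against no-compound and no-enzyme controls.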

[2] = Human Microsomal Metabolic Stability Assay; format: in vitro ADME; conditions: 0.5 μM test compound, 0.5 mg/mL microsomal protein, 45 min
Experimental: d) Human Microsomal Metabolic Stability Assay Protocol Summary Test compound (0.5 μM) was incubated with pooled liver microsomes. Test compound was incubated over the course of a 45 min experiment and the test compound was analysed by LC-MS/MS. Experimental Procedure Pooled human liver microsomes were purchased from a reputable commercial supplier, for example Corning Life Sciences. Microsomes (final protein concentration 0.5 mg/mL), 50 mM phosphate buffer pH7.4 and NADPH (final concentration=1 mM) were pre-incubated at 37° C. prior to the addition of test compound (final substrate concentration=0.5 μM; final DMSO concentration=0.25%) to initiate the reaction. The final incubation volume was 500 μL. A control incubation was included for each compound tested where 50 mM phosphate buffer pH7.4 was added instead of NADPH (minus NADPH). Two control compounds were included with each species. All incubations are performed singularly for each test compound. Each compound was incubated for 45 minutes and samples (50 μL) of incubate were taken at 0, 5, 15, 30 and 45 min. The control (minus NADPH) was sampled at 45 min only. The reactions were stopped by the addition of 100 μL acetonitrile containing internal standard to the sample. The terminated samples were centrifuged at 2,500 rpm for 20 min at 4° C. to precipitate the protein. Quantitative Analysis Following protein precipitation, the samples were analysed using generic LC-MS/MS conditions. Data Analysis From a plot of In peak area ratio (compound peak area/internal standard peak area) against time, the gradient of the line was determined. Subsequently, intrinsic clearance was calculated using the equations below, then converted to mL/min/g: Elimination rate constant (k)=(−gradient) Half life (t½) (min)=0.693+k Intrinsic Clearance (CLint) (μL/min/mg protein)=(V×0.693)+t1/2 where V=Incubation volume μL/mg microsomal protein.

[3] = Spleen Concentration Assay; format: in vivo; conditions: male, Wistar Han, rat, intravenous, 1 mg/kg, intravenous infusion 1 mg/kg over 1 h, single male Wistar Han rat, 12 hours after the start of dosing
Experimental: e) Spleen Concentration Assay Compounds 17, 18, 19, 22 and 23 were tested in this spleen accumulation assay. Compounds were administered intravenously to rats to determine what the level of the compound in the spleen would be if all of the inhaled dose was absorbed (either orally or through the lungs) and systemic circulation was exposed to the full dose. Compounds 17, 19, 22 and 23 were formulated in 2% DMSO in Kleptose (aq, 10% w/v). Compound 18 was formulated in a 5:45:50 ratio of DMSO:PEG200:water. Formulations were administered as intravenous infusions (1 mg/kg over 1 h) to a single male, Wistar Han rat. 12 hours after the start of dosing, rats were euthanised and spleens were collected. Approximately 0.5 g samples of spleen were taken and homogenised in 4 mL water. 100 μL of the resulting homogenates were prepared by protein precipitation with 300 μL of acetonitrile containing an internal standard and assayed (along with calibration standards prepared in the same manner) by reversed-phase liquid chromatography-mass spectrometry, using a heated electrospray source and operated in the positive ion multiple reaction monitoring mode. The liquid chromatography column used was a Waters Cortecs C18 2.7 μm particle size, 50×2.1 mm column at 60° C., and the mobile phase, operated as a gradient, utilised (A) 0.1% formic acid (aq) and (B) 0.1% formic acid in acetonitrile, operated at a flow rate of 1 mL/min.

| IC50 [1] | intrinsic clearance [2] | concentration at 12 h [3] | SMILES |
| --- | --- | --- | --- |
| 6.31 nM | 34.0 mL/min/g |  | COc1ccc(-c2c(C)nn3c(NCc4cccc(-c5nccn5C)c4)cc(C(C)(C)O)nc23)cc1C(=O)N(C)C1CCOCC1 [Compound 21, 5-(5-(2-Hydroxypropan-2-yl)-2-methyl-7-((3-(1-methyl-1H-imidazol-2-yl)benzyl)amino)pyrazolo[1,5-a]pyrimidin-3-yl)-2-methoxy-N-methyl-N-(tetrahydro-2H-pyran-4-yl)benzamide] |
| 2.51 nM and ≤ 3.98 nM | 11.6 mL/min/g | < 7 ng/g | CCN(CCO)C(=O)c1cc(-c2c(C)nn3c(NCc4cccc(-c5nccn5C)c4)cc(C(C)(C)O)nc23)ccc1OC [Compound 19, N-ethyl-N-(2-hydroxyethyl)-5-(5-(2-hydroxypropan-2-yl)-2-methyl-7-((3-(1-methyl-1H-imidazol-2-yl)benzyl)amino)pyrazolo[1,5-a]pyrimidin-3-yl)-2-methoxybenzamide] |
| 3.16 nM and ≤ 3.98 nM | 33.7 mL/min/g | < 7 ng/g | Cc1ccc(-c2c(C)nn3c(NCc4cccc(-c5nccn5C)c4)cc(C(C)(C)O)nc23)cc1C(=O)N(C)[C@@H](C)CO [Compound 22, (S)—N-(1-hydroxypropan-2-yl)-5-(5-(2-hydroxypropan-2-yl)-2-methyl-7-((3-(1-methyl-1H-imidazol-2-yl)benzyl)amino)pyrazolo[1,5-a]pyrimidin-3-yl)-N,2-dimethylbenzamide] |
| 2.51 nM and ≤ 3.98 nM | 28.9 mL/min/g |  | Cc1ccc(-c2c(C)nn3c(NCc4cccc(-c5nccn5C)c4)cc(C(C)(C)O)nc23)cc1C(=O)N(C)CCCO [Compound 17, 5-(5-(2-Hydroxypropan-2-yl)-2-methyl-7-((3-(1-methyl-1H-imidazol-2-yl)benzyl)amino)pyrazolo[1,5-a]pyrimidin-3-yl)-N-(3-hydroxypropyl)-N,2-dimethylbenzamide] |
